# Assay results taken from PMC9022229, “Induction of Paraptosis by Cyclometalated Iridium Complex-Peptide Hybrids and CGP37157 via a Mitochondrial Ca^2+ Overload Triggered by Membrane Fusion between Mitochondria and the Endoplasmic Reticulum” (Biochemistry, 2022).
# Legend:
# [1] = tested on: Jurkat cells; details: for Effect of Ca2+ channel inhibitor on cell death induced by 4 / Effect of Ca2+ channel inhibitor on cell death induced by celastrol: inhibitor 1 h (2-APB 50 μM, RuRed 10 μM, ER-000444793 10 μM); for Effect of Ca2+ channel inhibitor on cell death induced by 4: then 4 5 μM 3 h, microscopy and MTT; for Effect of Ca2+ channel inhibitor on cell death induced by celastrol: then celastrol 1 μM 12 h; for Effect of Ca2+ channel inhibitor on cell death induced by celastrol / Effect of PCD inhibitor on cell death induced by CGP37157 / Effect of GTPase inhibitor on cytotoxicity by 4 / Effect of GTPase inhibitor on cytotoxicity by CGP37157: MTT; for Effect of PCD inhibitor on cell death induced by CGP37157: Z-VAD-fmk 30 μM, Nec-1 30 μM, 3-MA 5 mM, CGP37157 100 µM, 12 h, three independent experiments; for Effect of GTPase inhibitor on cytotoxicity by 4 / Effect of GTPase inhibitor on cytotoxicity by CGP37157: inhibitor 1 h (dynasore, Mdivi-1 10–30 μM, CID1067700 1–10 μM); for Effect of GTPase inhibitor on cytotoxicity by 4: then 4 5 μM 1 or 3 h; for Effect of GTPase inhibitor on cytotoxicity by CGP37157: then CGP37157 100 μM 12 h
# [2] = tested on: mitofusin 1 (MFN1); test: Western blot analysis of MFN1 in Jurkat cells; assay type: cell-based; details: for MFN1 band intensity relative to absence of compound: Figure S8C, 24 h
# Procedure: (§1) In a 1.5 mL Eppendorf tube, Jurkat cells (1.0 × 10^6 cells) were incubated in the presence of 4 ([…]), CGP37157 (100 μM for 0–24 h or 0–100 μM for 12 h), and celastrol (0–10 μM for 24 h or 1 μM for 0–24 h) at 37 °C under 5% CO2. After the cells had been washed twice with PBS, the proteins were extracted by using RIPA buffer (Nacalai Tesque) and quantified using a Pierce BCA Protein Assay Kit (Thermo Scientific). Proteins (7.5 μg/well) for MFNs and DRP1 and proteins (5.0 μg/well) for GAPDH were used for sodium dodecyl sulfate–polyacrylamide gel electrophoresis (SDS–PAGE) (7.5% for MFNs and DRP1 and 10% for GAPDH) (Bio-Rad). After SDS–PAGE, the proteins were transferred to a polyvinylidene fluoride membrane (Merck Millipore) by using a semi dry blotter (Bio-Rad). The membrane was blocked with Blocking One solution (Nacalai Tesque) for 30 min at room temperature. After being blocked, the membrane was washed three times with 1× TBST and treated with primary antibodies overnight (at a dilution of 1/1000 for MFNs and DRP1 or 1/2000 for GAPDH) in a signal enhancer HIKARI-solution A (Nacalai Tesque). The membrane was washed three times with 1× TBST and treated with the anti-mouse or anti-rabbit IgG HRP-conjugated secondary antibody (at a dilution of 1/4000 for MFNs and DRP1 or 1/10000 for GAPDH) in 1× TBST for 60 min at room temperature. The protein signal was spotted with a Chemi-Lumi One Ultra solution (Nacalai Tesque) using the ChemiDoc MP system (Bio-Rad). […]
# [3] = tested on: mitofusin 2 (MFN2); test: Western blot analysis of MFN2 in Jurkat cells; assay type: cell-based; details: for MFN2 band intensity relative to absence of compound: Figure S8C, 24 h
# Procedure: as §1
# [4] = tested on: dynamin-related protein 1 (DRP1); test: Western blot analysis of DRP1 in Jurkat cells; assay type: cell-based; details: for DRP1 band intensity relative to absence of compound: Figure S8C, 24 h
# Procedure: In a 1.5 mL Eppendorf tube, Jurkat cells (1.0 × 10^6 cells) were incubated in the presence of 4 ([…]), CGP37157 (100 μM for 0–24 h or 0–100 μM for 12 h), and celastrol (0–10 μM for 24 h or 1 μM for 0–24 h) at 37 °C under 5% CO2. After the cells had been washed twice with PBS, the proteins were extracted by using RIPA buffer (Nacalai Tesque) and quantified using a Pierce BCA Protein Assay Kit (Thermo Scientific). Proteins (7.5 μg/well) for MFNs and DRP1 and proteins (5.0 μg/well) for GAPDH were used for sodium dodecyl sulfate–polyacrylamide gel electrophoresis (SDS–PAGE) (7.5% for MFNs and DRP1 and 10% for GAPDH) (Bio-Rad). After SDS–PAGE, the proteins were transferred to a polyvinylidene fluoride membrane (Merck Millipore) by using a semi dry blotter (Bio-Rad). The membrane was blocked with Blocking One solution (Nacalai Tesque) for 30 min at room temperature. After being blocked, the membrane was washed three times with 1× TBST and treated with primary antibodies overnight (at a dilution of 1/1000 for MFNs and DRP1 or 1/2000 for GAPDH) in a signal enhancer HIKARI-solution A (Nacalai Tesque). The membrane was washed three times with 1× TBST and treated with the anti-mouse or anti-rabbit IgG HRP-conjugated secondary antibody (at a dilution of 1/4000 for MFNs and DRP1 or 1/10000 for GAPDH) in 1× TBST for 60 min at room temperature. The protein signal was spotted with a Chemi-Lumi One Ultra solution (Nacalai Tesque) using the ChemiDoc MP system (Bio-Rad).
# [5] = tested on: Jurkat cells; test: Mitochondria-ER membrane fusion, co-staining with MitoTracker Green and ER-Tracker Red; assay type: cell-based; details: celastrol 1 μM, 12 h
# Procedure: To verify this hypothesis, mitochondria and the ER were stained with both MitoTracker Green and ER-Tracker Red in the presence of 4, CGP37157, and celastrol (Figure 8). Jurkat cells were stained with MitoTracker Green (0.5 μM) and ER-Tracker Red (1 μM) and then treated with 4 (5 μM) for 10–30 min (time-dependent microscopic images are presented in Figure S5). […] With regard to CGP37157 and celastrol, Jurkat cells were stained with MitoTracker Green (0.5 μM) and ER-Tracker Red (1 μM) and then treated with CGP37157 (100 μM) and celastrol (1 μM) for 1–24 h (Figure 8 and Figure S5).
# In a 1.5 mL Eppendorf tube, Jurkat cells (2.0 × 10^5 cells) were stained with MitoTracker Green (0.5 μM) for 1 h at 37 °C under 5% CO2 and then ER-Tracker Red (1 μM) for 1 h at 37 °C under 5% CO2 in 10% FBS/RPMI 1640 medium (100 μL). After being washed with PBS, the cells were treated with 4 (5 μM) in 10% FBS/RPMI 1640 medium (100 μL) for 0–30 min at 37 °C under 5% CO2. For CGP37157 and celastrol, Jurkat cells were treated with CGP37157 (100 μM) or celastrol (1 μM) in 10% FBS/RPMI 1640 medium (100 μL) for 0–24 h, after which the cells were stained with MitoTracker Green (0.5 μM) for 1 h at 37 °C under 5% CO2 and then ER-Tracker Red (1 μM) for 1 h at 37 °C under 5% CO2 in PBS. The cells were washed with PBS and observed by confocal microscopy (Fluoview, FV-1000, Olympus) using a Greiner CELLview dish (35 mm × 10 mm). Excitation at 473 nm and emission from 485 to 545 nm were used for MitoTracker Green. Excitation at 559 nm and emission from 570 to 620 nm were used for ER-Tracker Red. The exposure time was 20 μs/pixel.
# [6] = tested on: Jurkat cells; test: TEM analysis of cytoplasmic vacuolization; assay type: cell-based; details: celastrol 1 μM, 24 h
# Procedure: The morphological changes in Jurkat cells induced by CGP37157 (Figure 3B) were similar to those induced by 4 (Figure 1B) and confirmed in detail by TEM (transmission electron microscopy). Jurkat cells were treated with CGP37157 (100 μM) for 12 h, prefixed with glutaraldehyde and postfixed with osmium tetroxide (OsO4), and included in Poly 812 resin. The resulting samples were sliced and then observed by TEM. […] Similar TEM images were reported with respect to paraptosis-inducing natural compounds by some research groups: (i) paraptosis in MDA-MB 435S cells,[17] HeLa cells,[18] and Jurkat cells (Figure 4d and in our previous publications)[56]−[58] induced by celastrol, (ii) paraptosis in HeLa cells induced by 8-p-hydroxybenzoyl tovarol,[23] and (iii) paraptosis in A2780 cells and SKOV-3 cells induced by morusin.[22] Therefore, we believe that Jurkat cells undergo vacuolization in the paraptotic processes induced by 4 and CGP37157, as well as celastrol.
# In a 1.5 mL Eppendorf tube, Jurkat cells (3.0 × 10^6 cells) were incubated with 4 (5 μM for 3 h), CGP37157 (100 μM for 12 h), and celastrol (1 μM for 24 h) in 10% FBS/RPMI 1640 medium at 37 °C under 5% CO2. After centrifugation (2000 rpm, 3 min, 4 °C), the cells were washed twice with PBS, prefixed with glutaraldehyde (2.5%) at 4 °C for 40 min, and then washed twice with PBS. Osmium tetroxide (1%) was used for postfixation, and the solution was incubated at 4 °C for 30 min. The cells were washed with PBS, included in an agarose gel, and dehydrated by using 50–100% and anhydrous EtOH. The cells were embedded into Poly 812 resin (Nisshin EM Co. Ltd.) at 60 °C for 3 days. The resin was sliced with a glass knife (150 nm thickness) on an ultramicrotome (EM UC6, Leica), and the samples were stained with EM stainer (Nisshin EM Co. Ltd.) and observed on TEM instrument (H-7650, Hitachi) with electron irradiation at 100 kV.
# [7] = tested on: MFN1- and/or MFN2-KD Jurkat cells; test: MTT assay of MFN1- and/or MFN2-KD Jurkat cells; assay type: cell-based; details: siRNA 10 nM, celastrol 1 µM, 12 h, three independent experiments
# Procedure: The roles of MFNs in the cell death induced by 4 and CGP37157 were examined by using small interfering RNA (siRNA) for MFN1 and MFN2 to knock down (KD) these proteins. […] The cytotoxicity of 4 and CGP37157 against MFN1- and/or MFN2-KD Jurkat cells was evaluated by MTT assays. […] The effect of a negative control siRNA (NCsiRNA) on the expression levels of MFNs and the cell viability of Jurkat cells was negligible, implying that MFNs are […] to the paraptosis induced by 4 and CGP37157. It should be noted that the treatment with siRNA at 5 nM for 72 h was toxic against Jurkat cells in the presence of 4 and CGP37157, although the efficiency of knockdown of these proteins by siRNA could be improved by increasing the incubation time, as shown in Figure S11.
# To a solution of transfection reagent (INTERFERin, 5 μL) in OPTI-MEM (0.3 mL) in a 1.5 mL Eppendorf tube was added siRNA (10 μM, 1 or 2 μL) in H2O, and the resulting solution was allowed to stand for 15 min at room temperature. The resulting solution was then added to Jurkat cells (2.0 × 10^5 cells/mL, 1.5 mL) in 10% FBS/RPMI 1640 medium that had been seeded on a 12-well plate and incubated overnight at 37 °C under 5% CO2 (the final concentration of siRNA was 5 or 10 nM), and the resulting solution was incubated for 48 or 72 h at 37 °C under 5% CO2. The cells were collected by centrifugation (2000 rpm, 3 min, 4 °C), and the expression levels of MFNs were evaluated by Western blot analysis as described above. The cytotoxicity of 4 (3 or 5 μM), CGP37157 (50 or 100 μM), and celastrol (1 μM) against MFNs-KD Jurkat cells was evaluated by MTT assays as described above.
# [8] = celastrol 1 μM 0–24 h or 0–10 μM 24 h
molecule,measurement,setting,value
"NCCOB(c1ccccc1)c1ccccc1 [2-APB, 2-Aminoethoxydiphenyl borate]",Effect of Ca2+ channel inhibitor on cell death induced by 4,[1],negligible inhibitory effects
same,Effect of Ca2+ channel inhibitor on cell death induced by celastrol,[1],negligible inhibitory effects
Cn1cnc(N)c2ncnc1-2 [3-methyladenine],Effect of PCD inhibitor on cell death induced by CGP37157,[1],negligible inhibition
CC1(C)Cc2c(sc(NC(=S)NC(=O)c3ccccc3)c2C(=O)O)CO1 [CID1067700],Effect of GTPase inhibitor on cytotoxicity by 4,[1],negligible effect
same,Effect of GTPase inhibitor on cytotoxicity by CGP37157,[1],negligible effect
O=C(Nc1ccccc1Cc1ccccc1)c1cc(=O)[nH]c2ccccc12 [ER-000444793],Effect of Ca2+ channel inhibitor on cell death induced by 4,[1],negligible inhibitory effects
same,Effect of Ca2+ channel inhibitor on cell death induced by celastrol,[1],negligible inhibitory effects
COc1cc(-n2c(=S)[nH]c3ccccc3c2=O)c(Cl)cc1Cl [Mdivi-1],Effect of GTPase inhibitor on cytotoxicity by 4,[1],negligible effect
same,Effect of GTPase inhibitor on cytotoxicity by CGP37157,[1],negligible effect
"N.N.N.N.N.N.N.N.N.N.N.N.N.N.[Cl-].[Cl-].[Cl-].[Cl-].[Cl-].[Cl-].[O-2].[O-2].[Ru+3].[Ru+3].[Ru+4] [RuRed, ruthenium red]",Effect of Ca2+ channel inhibitor on cell death induced by 4,[1],negligible inhibitory effects
same,Effect of Ca2+ channel inhibitor on cell death induced by celastrol,[1],negligible inhibitory effects
CC1=C(O)C(=O)C=C2C1=CC=C1[C@@]2(C)CC[C@@]2(C)[C@@H]3C[C@](C)(C(=O)O)CC[C@]3(C)CC[C@]12C [celastrol],MFN1 band intensity relative to absence of compound,[2]; celastrol 1 µM,0.56
same,MFN1 band intensity relative to absence of compound,[2]; celastrol 2 µM,0.51
same,MFN1 band intensity relative to absence of compound,[2]; celastrol 5 µM,0.45
same,MFN1 band intensity relative to absence of compound,[2]; celastrol 8 µM,0.43
same,MFN1 band intensity relative to absence of compound,[2]; celastrol 10 µM,0.37
same,"Expression level of MFN1 (Figure 11C, S8C)",[2]; [8],decreased
same,MFN2 band intensity relative to absence of compound,[3]; celastrol 1 µM,0.29
same,MFN2 band intensity relative to absence of compound,[3]; celastrol 2 µM,0.21
same,MFN2 band intensity relative to absence of compound,[3]; celastrol 5 µM,0.21
same,MFN2 band intensity relative to absence of compound,[3]; celastrol 8 µM,0.22
same,MFN2 band intensity relative to absence of compound,[3]; celastrol 10 µM,0.15
same,"Expression level of MFN2 (Figure 11C, S8C)",[3]; [8],decreased
same,DRP1 band intensity relative to absence of compound,[4]; celastrol 1 µM,0.92
same,DRP1 band intensity relative to absence of compound,[4]; celastrol 2 µM,0.81
same,DRP1 band intensity relative to absence of compound,[4]; celastrol 5 µM,0.44
same,DRP1 band intensity relative to absence of compound,[4]; celastrol 8 µM,0.20
same,DRP1 band intensity relative to absence of compound,[4]; celastrol 10 µM,0.19
same,"Expression level of DRP1 (Figure 11C, S8C)",[4]; [8],decreased
same,Overlap of MitoTracker Green and ER-Tracker Red emission (mitochondria-ER membrane fusion),[5],negligible
same,Morphological change by TEM,[6],cytoplasmic vacuolization
same,Effect of knockdown of MFNs on cell death induced by the compound,[7],negligible effect
CN1C(=O)C(Cc2c[nH]c3ccccc23)NC1=S (stereo not shown) [necrostatin-1],Effect of PCD inhibitor on cell death induced by CGP37157,[1],negligible inhibition
Benzyloxycarbonyl-Val-Ala-Asp(OMe) fluoromethylketone [Z-VAD-fmk],Effect of PCD inhibitor on cell death induced by CGP37157,[1],weakly inhibited
